The target in series [1] is hsTRPM4 L907A, S924A and L907A/S924A mutants (Homo sapiens, UniProt Q8TD43, L907A/S924A). The experiment in a line: Whole-cell patch clamp of wild-type and binding-site mutant hsTRPM4. Particulars: whole-cell voltage clamp. For orientation: In patch-clamp work, channel activity is measured electrically.
From the text: (§1) Initially, we assessed the basic properties of the hsTRPM4 mutants using whole-cell patch clamp electrophysiology.
Series [2] relates to hsTRPM4 L907A, S924A and L907A/S924A mutants. The series is described as above. Particulars: whole-cell voltage clamp, HEK293T.
From the text: as §1
The nature of series [3]: In vivo pharmacokinetics after single i.p. or i.v. dose. Particulars: female, C57BL/6J, mouse. As for the experimental part:
Next, to assess in vivo availability of the Series 1–3 compounds, we evaluated drug metabolism and pharmacokinetics (DMPK). We measured compound concentrations in plasma, heart, and brain at several time points after intraperitoneal (i.p.) or intravenous (i.v.) single-dose injections.
Half-life and bioavailability were calculated by noncompartmental analysis using the R package PK[84] (v1.3-6).

The target in series [4] is T1, human TRPM4 (Homo sapiens, UniProt Q8TD43). The experiment in a line: Inside-out patch clamp, human TRPM4. Particulars: inside-out patch clamp configuration. More on the design: Human TRPM4 (UniProtKB: Q8TD43-1) and mouse Trpm4 (UniProtKB: Q7TN37-1) were amplified via PCR; expressed in transfected cells. The series is classed as cell-based. As for the experimental part:
Patch clamp recordings were conducted using an EPC10 patch clamp amplifier and Patchmaster software (HEKA, Germany). An Ag/AgCl wire served as the reference electrode in all experiments. […] Liquid junction potential was compensated before achieving gigaseal formation. All experiments were conducted at room temperature. Whole-cell currents were recorded in transiently transfected HEK293 cells expressing either wildtype human TRPM4, TRPM4-L907A, or TRPM4-S924A. Recordings involved a 400 ms increasing voltage ramp from –100 mV to +100 mV, initiated from a holding potential of 0 mV. The interval between each sweep was 2 seconds, with data sampled at 5 kHz. […] To identify TRPM4 currents, extracellular Na^+ was replaced with equimolar NMDG^+. […] Similar to whole-cell recordings, a 400 ms increasing voltage ramp from –100 mV to +100 mV was applied from a holding potential of 0 mV. The interval between sweeps was 2 seconds, and data were sampled at 5 kHz. […] TRPM4 currents were activated by 500 μM CaCl2 and deactivated by 10 mM EGTA, both added to the intracellular solution. Ca^2+ activation curves were fitted using a likelihood maximization algorithm to estimate the parameters for the sigmoidal fitting curves y-maximum, slope and midpoint as part of the R package sicegar (V0.2.4).

Series [5] relates to broad panel of receptors, enzymes, and ion channels. In words: SafetyScreen44 in vitro pharmacology panel (whole panel). The series is classed as binding. Particulars: SafetyScreen44, 5 μM; active = inhibition above 50%. As for the experimental part:
We next used in vitro assays to test absorption, distribution, metabolism, excretion and toxicity (ADMET) parameters for selected compounds. We assessed compound absorption using parallel artificial membrane permeability (PAMPA) and Caco-2 cell permeability assays (cut-off criterion >2 × 10^−6 cm s^−1). Compound toxicity was evaluated by measuring inhibition of cytochrome P450 enzymes (CYP), the potassium channel human Ether-a-go-go Related Gene (hERG), and TRPM5, with all parameters meeting acceptable criteria. […] To assess potential off-target activity of our compounds that could be relevant for safety in humans, we conducted comprehensive in vitro pharmacology using the commercially available and widely used SafetyScreen44 interaction panel[60] covering eight protein families.
For in vitro pharmacological profiling and determination of off target effects compound were screened at a 5 μM in duplicate for their potential to bind to a broad panel of receptors, enzymes, and ion channels on a commercially available platform (Safetyscreen 44 Panel; Eurofins Cerep, Le Bois l'Evêque, B.P. 30001, 86 600 Celle l'Evescault, France), Study ID FR095-0009609).

The target in another series is T2, mouse TRPM4 (Mus musculus, UniProt Q7TN37).
T2 construct: Human TRPM4 (UniProtKB: Q8TD43-1) and mouse Trpm4 (UniProtKB: Q7TN37-1) were amplified via PCR; eGFP (C); expressed in transfected cells
In words: Inside-out patch clamp, mouse TRPM4. Particulars: inside-out patch clamp configuration. In kind it is cell-based.

The test system of series [6] is primary mouse neuronal cultures. The experiment in a line: TMRE assay of mitochondrial membrane potential after glutamate. In kind it is cell-based. Particulars: 50 μM glutamate for 2 h, compound 30 min before. On the procedure:
We assessed its ability to inhibit the deterioration of mitochondrial membrane potential (ΔΨm) in response to glutamate-induced excitotoxicity. The ratio between the ΔΨm-dependent dye tetramethylrhodamine ethyl ester (TMRE) and the mitochondrial dye MitoTracker was quantified for this purpose.
Subsequently 50 μM glutamate was applied for in total 2 hours. Then, 20 nM TMRE dye (Abcam, ab113852), 500 nM MitoTracker dye (ThermoFisher, M7512), and 1 μM Hoechst 33342 were added after 1.5 hours glutamate stimulation for 30 minutes. Afterwards cells were washed two times in pre-warmed medium and were imaged immediately in preconditioned medium using a confocal microscope (Zeiss, LSM700) with 20-fold magnification and controlled atmosphere conditions (37°C, 5% CO2). Imaging time was less than 10 minutes per condition. We quantified the total MFI of the MitoTracker and TMRE dyes per cell. At least 50 cells per condition were quantified and the mean ratios of TMRE to Mitotracker per independent experiments were reported.

Series [7] has as its target T1, human TRPM4. The experiment in a line: QPatch automated patch clamp on TRPM4-expressing HEK293 cells. Particulars: hsTRPM4-expressing HEK293 cells. The series is classed as cell-based. As for the experimental part: QPatchHTX, an automated electrophysiology platform, was used in single hole mode. One day before use human TRPM4- or TRPM5-expressing HEK293 cells were seeded in a T75 flask at a density of 53k cells per cm^2 and at passages < 23. […] The extracellular solution was (in mM): CaCl2 (7), MgCl2 (2), KCl (5), HEPES (10), NaCl (70), NMDG (70); pH 7.4 with NaOH. The intracellular solution was (in mM): HEPES (10), NMDG (100), NaCl (50), EGTA (20), MgCl2 (1), CaCl2 (21); pH 7.2 with HCl. […] This protocol was repeated every 7 seconds. […] FFA was used as reference compound and applied cumulatively with each concentration incubating at a minimum of 20 voltage protocol runs (140 seconds) with the current after addition of FFA being calculated as full block. […] Each compound was measured at least 3 time independently.

The test system of series [8] is primary mouse neuronal cultures. The experiment in a line: Glutamate-induced excitotoxicity assay (RealTime-Glo viability). In kind it is cell-based. Particulars: 5 μM. As for the experimental part:
To evaluate the in vitro efficacy of our developed compounds, we employed primary mouse neuronal cultures (PNCs) and conducted glutamate-induced excitotoxicity assays. Cultures were pre-treated with respective Series 1 and Series 3 compounds before glutamate exposure, and neuronal viability was assessed 15 h post-stimulation with glutamate.
Figure 3 Neuroprotective in vitro evaluation and in vivo pharmacokinetics (A) In vitro evaluation of compound activity on glutamate-induced excitotoxicity in mature primary neuronal cultures. Neuronal cultures were treated with 5 μM of the specified compound or vehicle control 5 h prior to glutamate stimulation, assessing compound rescue activity and toxicity relative to minimal (Vehicle +0 μM Glu) and maximal (Vehicle +50 μM Glu) excitotoxicity. Time course of a representative compound with virtual endpoint at 15 h post stimulation and assay window definition (left). Toxicity of compound treated cultures with and without glutamate stimulation (right). Data are represented as mean and 95% confidence interval; n ≥ 4; ∗p < 0.05, ∗∗p < 0.01, ∗∗∗p < 0.001; One-sample Wilcoxon signed-rank test. […] Mitochondrial membrane potential was measured by the mean fluorescence intensity of TMRE normalized to MitoTracker. Data are represented as mean ± SEM; n = 5; paired t-test. (C) In vivo pharmacokinetics of four selected compounds. Time course of compound concentration in the brain, heart, and plasma after a single dose via intraperitoneal (i.p.) or intravenous (i.v.) application. Data are represented as mean ± SEM. Half-life estimates by non-compartmental analysis are shown as vertical line and IC50 value as dashed horizontal line. (D) Compound concentration in the brain relative to respective IC50 concentrations after a single dose via intra-peritoneal or intra-venous routes. Also see Figure S6.
Excitotoxicity assays were performed using primary mouse neuronal cultures between 14 and 17 days in vitro (DIV). Cell viability was measured using RealTime-Glo MT Cell Viability Assay (Promega, catalog no. G9711) according to the manufacture protocol. Compounds were co-administered with RealTime-Glo reagents, and luciferase measurements were conducted using the Tecan-Spark M10 microplate reader with environmental control set to 37°C and 5% CO2. Neuronal cultures were stimulated with either glutamate or vehicle five hours after compound application and monitored for an additional 20 hours. To adjust for inter-well variability, arbitrary light units were normalized to a steady signal prior to glutamate addition for each well. Toxicity was calculated relative to the minimal cell viability at 15 hours post glutamate stimulation and cell viability of the PBS vehicle control.

The structures appear in SMILES notation. “Also recorded” adds a separate entry of the source. Read-outs that look alike come from different tables or passages of the source.

Two molecules from article PMC11648915, “Identification and development of TRPM4 antagonists to counteract neuronal excitotoxicity” (iScience, 2024) can be followed below.

T2 sequence (Q7TN37 whole entry): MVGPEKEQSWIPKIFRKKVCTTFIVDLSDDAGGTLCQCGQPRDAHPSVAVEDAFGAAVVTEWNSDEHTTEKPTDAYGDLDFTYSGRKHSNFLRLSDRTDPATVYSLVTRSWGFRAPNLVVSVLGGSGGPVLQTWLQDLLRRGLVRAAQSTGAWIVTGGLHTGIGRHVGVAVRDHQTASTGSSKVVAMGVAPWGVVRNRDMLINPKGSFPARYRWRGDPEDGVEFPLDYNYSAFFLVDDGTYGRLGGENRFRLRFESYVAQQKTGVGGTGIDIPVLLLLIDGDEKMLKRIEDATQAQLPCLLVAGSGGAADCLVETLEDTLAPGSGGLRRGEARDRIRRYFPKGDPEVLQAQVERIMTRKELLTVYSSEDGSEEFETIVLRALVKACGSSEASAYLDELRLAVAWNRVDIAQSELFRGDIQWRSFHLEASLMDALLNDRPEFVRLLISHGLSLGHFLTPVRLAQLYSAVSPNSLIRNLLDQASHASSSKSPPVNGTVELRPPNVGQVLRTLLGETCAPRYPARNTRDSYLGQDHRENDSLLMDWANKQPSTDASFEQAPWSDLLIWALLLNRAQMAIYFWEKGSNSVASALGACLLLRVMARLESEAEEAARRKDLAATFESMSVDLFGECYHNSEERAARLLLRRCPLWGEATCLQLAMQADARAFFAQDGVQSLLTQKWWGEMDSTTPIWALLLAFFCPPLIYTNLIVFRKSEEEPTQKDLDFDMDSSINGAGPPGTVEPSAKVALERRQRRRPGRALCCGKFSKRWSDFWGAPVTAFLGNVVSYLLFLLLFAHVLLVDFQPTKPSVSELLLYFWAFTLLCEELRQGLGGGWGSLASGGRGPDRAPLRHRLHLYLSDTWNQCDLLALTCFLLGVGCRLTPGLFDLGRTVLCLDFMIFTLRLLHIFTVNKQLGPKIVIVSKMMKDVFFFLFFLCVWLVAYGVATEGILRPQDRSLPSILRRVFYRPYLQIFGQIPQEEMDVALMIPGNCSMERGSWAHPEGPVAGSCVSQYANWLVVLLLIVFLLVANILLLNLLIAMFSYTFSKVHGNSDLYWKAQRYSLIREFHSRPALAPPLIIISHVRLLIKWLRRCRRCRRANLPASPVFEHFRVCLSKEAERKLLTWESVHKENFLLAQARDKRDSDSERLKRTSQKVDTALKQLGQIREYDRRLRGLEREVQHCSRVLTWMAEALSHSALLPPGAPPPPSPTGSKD
T1 sequence (Q8TD43 whole entry): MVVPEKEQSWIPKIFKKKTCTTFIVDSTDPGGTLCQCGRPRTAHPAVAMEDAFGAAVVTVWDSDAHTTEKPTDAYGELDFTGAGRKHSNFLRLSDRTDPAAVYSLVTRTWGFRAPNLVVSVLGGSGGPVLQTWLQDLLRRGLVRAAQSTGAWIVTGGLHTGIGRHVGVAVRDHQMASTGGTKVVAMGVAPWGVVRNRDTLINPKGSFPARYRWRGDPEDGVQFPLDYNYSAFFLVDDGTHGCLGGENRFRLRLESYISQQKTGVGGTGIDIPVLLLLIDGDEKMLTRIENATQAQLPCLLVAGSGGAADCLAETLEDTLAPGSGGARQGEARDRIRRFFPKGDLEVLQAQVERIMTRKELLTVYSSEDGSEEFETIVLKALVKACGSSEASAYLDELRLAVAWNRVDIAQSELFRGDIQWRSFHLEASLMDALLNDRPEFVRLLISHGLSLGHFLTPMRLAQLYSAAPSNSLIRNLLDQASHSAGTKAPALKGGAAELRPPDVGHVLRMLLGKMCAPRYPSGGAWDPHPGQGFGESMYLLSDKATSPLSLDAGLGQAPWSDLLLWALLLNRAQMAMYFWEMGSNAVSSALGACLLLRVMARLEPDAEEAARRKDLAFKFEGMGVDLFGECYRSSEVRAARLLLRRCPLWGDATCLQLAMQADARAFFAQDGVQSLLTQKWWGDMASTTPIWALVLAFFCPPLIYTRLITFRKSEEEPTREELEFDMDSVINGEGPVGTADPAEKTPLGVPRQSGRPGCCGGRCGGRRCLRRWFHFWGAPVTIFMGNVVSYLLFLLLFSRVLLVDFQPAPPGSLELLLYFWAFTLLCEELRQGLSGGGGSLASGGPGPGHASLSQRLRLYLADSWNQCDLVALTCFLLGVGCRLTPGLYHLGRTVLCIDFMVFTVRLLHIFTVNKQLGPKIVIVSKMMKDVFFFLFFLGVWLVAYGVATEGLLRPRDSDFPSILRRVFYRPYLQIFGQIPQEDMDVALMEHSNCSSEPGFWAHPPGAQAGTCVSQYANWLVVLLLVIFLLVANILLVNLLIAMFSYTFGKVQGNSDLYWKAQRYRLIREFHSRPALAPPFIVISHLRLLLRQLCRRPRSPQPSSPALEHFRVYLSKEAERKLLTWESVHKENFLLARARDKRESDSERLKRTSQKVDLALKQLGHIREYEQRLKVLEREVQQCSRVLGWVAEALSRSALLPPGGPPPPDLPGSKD
Sequence of hsTRPM4 L907A, S924A and L907A/S924A mutants (Homo sapiens, UniProt Q8TD43, L907A/S924A) (Q8TD43 whole entry L907A/S924A): as the sequence (Q8TD43 whole entry) above, with L907A, S924A counted along it

For orientation: half-life means how long it takes for the measured level to halve. Take `O=C(CCc1ccccc1)Nc1ccc(Br)cc1C(=O)O` [CMP233]: the “Affinity in the L907A/S924A double mutant” value in [1] is recorded as “completely abolished”. The “Current inhibition of hsTRPM4 L907A and S924A mutants versus wildtype” value in series [2] was “significantly reduced current inhibition in at least one hsTRPM4 mutant variant”. The half-life in series [3] (brain, ip, read-out: Brain half-life (converted)) is 1.4 h; in series [3] (brain, iv, read-out: Brain half-life (converted)), 0.3 h; in series [3] (heart, ip, read-out: Heart half-life (converted)) it was 1.1 h; in [3] (heart, iv, read-out: Heart half-life (converted)) it was 1.3 h; in series [3] (plasma, ip, read-out: Plasma half-life (converted)), 0.9 h; in [3] (plasma, iv, read-out: Plasma half-life (converted)), 0.5 h. Moreover, on human TRPM4 [4], the “Activity on human TRPM4” value is recorded as “highly effective in both species; also recorded: active on both species”. Also, the “Off-target binding in in vitro pharmacology panel” value in series [5] is reported as “no off-target binding”. The “Activity on mouse TRPM4” value at mouse TRPM4 is “highly effective in both species; also recorded: active on both species”.
Broadly, the IC50 is the midpoint of a concentration-inhibition curve. A high value points to weaker potency. For `COc1cccc(-c2ccccc2NCc2nc3ccccc3o2)c1` [CMP312], the “Affinity in the L907A/S924A double mutant” value in series [1] is reported as “completely abolished”. Moreover, the “Current inhibition of hsTRPM4 L907A and S924A mutants versus wildtype” value in series [2] was “significantly reduced current inhibition in at least one hsTRPM4 mutant variant”. Also, the “Mitochondrial membrane potential (ΔΨm), TMRE / MitoTracker ratio” value in series [6] is listed as “mitigated the glutamate-induced decrease in ΔΨm”. In addition, the “Activity on human TRPM4” value at human TRPM4 [4] is listed as “almost completely blocked”. Further, the IC50 against human TRPM4 [7] turned out to be 4.87 µM. Further, at mouse TRPM4, the “Activity on mouse TRPM4” value is listed as “reduced activity on mouse TRPM4 compared to human TRPM4; also recorded: significantly less effective on mouse TRPM4”. Also, in series [8] (glutamate-stimulated primary mouse neuronal cultures), the “Protective effect in excitotoxicity assay” value is given as “potent protective effects”. Further, the “Compound toxicity in neuronal cultures” value in series [8] (primary mouse neuronal cultures) is recorded as “non-toxicity”.
